One assay has as its target T1, DTX3L/PARP9 complex (Homo sapiens, UniProt Q8IXQ6+Q8TDB6).
T1 construct: made in house; host or cells: Sf21 insect cells
The experiment in a line: FP binding of fluorescent AR peptides to DTX3L/PARP9 complex. The conditions noted are these: 50 nM peptide, RT 45 min, triplicate. The protocol: Figure 2 Interaction of DTX3L/PARP9 and ADP-ribosylated AR peptides measured by FP assays. […] The reaction mixture was incubated at RT for 45 min, FP measured in a PHERAstar FSX Microplate Reader (BMG Labtech), and the binding curves were fitted for specific binding with GraphPad Prism v 9.3.1. The error bars represent the standard deviations.
Recombinant PARP9, DTX3L, and DTX3LΔN (N-terminal deletion mutant) were expressed in Sf21 insect cells and purified as previously described.[14] Complex formation of DTX3L/PARP9 or DTX3LΔN/PARP9 was carried out in an equal-molar ratio by incubating the proteins at >1 mg mL^–1 for each on ice for ∼4 h. Fluorescently labeled AR peptides (50 nM final concentration) 1–5 were mixed with various concentrations of the individual recombinant proteins or the protein complexes in a reaction buffer containing 20 mM Tris–HCl (pH 7.5), 50 mM NaCl, 0.1 mM EDTA, and 2 mM DTT, incubated at RT for 45 min and then measured in a PHERAstar FSX Microplate Reader (BMG Labtech). The assays were performed in triplicate. Competition assays were performed with 50 μM ADP-ribose. After correction for signals due to the fluorescent AR peptide alone, polarization values were plotted and analyzed with Prism (GraphPad) using nonlinear fit for specific binding with Hill slope.

Assay [1] concerns the target dual ADP-ribosylated AR peptide 1, bis-ADP-ribosylated AR(280-294): CF-RPTPC(ADPr)APLAEC(ADPr)KGSL-OH. Briefly: fluorescence polarisation; 50 nM CF-labelled AR peptide; recombinant protein or preassembled complex titrated (2500 nM or 2000 nM highest, 2-fold serial dilution); 20 mM Tris-HCl pH 7.5, 50 mM NaCl, 0.1 mM EDTA, 2 mM DTT; RT, 45 min; triplicate; fit for specific binding with Hill slope. A general note: Fluorescence polarisation rises when a labelled molecule tumbles more slowly, as on binding a larger partner.

pKd: −log10 of the molar value. Some results are limits rather than exact numbers.

We go through four substances from PMC10660311 (ACS Chemical Biology, 2023).

The term pKd denotes the negative decadic logarithm of the Kd, by convention in mol/L.

Consider CF-RPTPCAPLAECKGSL-OH [Peptide 6], for which the “binding to DTX3L/PARP9 (in words)” value on DTX3L/PARP9 complex is “did not bind significantly”.

“CF-Arg-Pro-Thr-Pro-Cys(5-O-adenosine-diphosphate-α-D-ribosyl)-Ala-Pro-Leu-Ala-OH [Peptide 3, CF-labeled mono-ADPr AR peptide]”: the “binding to DTX3L/PARP9 (in words)” value at DTX3L/PARP9 complex is “near-background level of binding”.

Consider “CF-Pro-Leu-Ala-Glu-Cys(5-O-adenosine-diphosphate-α-D-ribosyl)-Lys-Gly-Ser-Leu-OH [Peptide 2, CF-labeled mono-ADPr AR peptide]”, for which the “binding to DTX3L/PARP9 (in words)” value at DTX3L/PARP9 complex is “near-background level of binding”.

For “DTX3LΔN/PARP9 complex (from UniProt Q8TDB6 1-740; Q8IXQ6 1-854)”, in assay [1], the pKd is < 6.30.
